From patent publication US20110190834A1, “DEVICES AND METHODS FOR SUPPRESSION OF SYMPATHOEXCITATION” (priority 2010, published 2011)
Read-outs that look alike come from different tables or passages of the source.

What was measured:
[1] = European (EMIAT) and Canadian (CAMIAT) post-myocardial infarction studies; cited from earlier work
[2] = Heart rate and blood pressure at peak exercise and in recovery, with atropine given during exercise; type: in vivo, human
Description: In experiments performed during development of embodiments of the present invention, the parasympathetic effects on cardiac electrophysiology during the post-exercise recovery period were studied. Subjects underwent upright bicycle exercise testing on two occasions. Continuous 12-lead ECG monitoring was performed using a commercially available system (Quest Exercise Stress System, Burdick, Deerfield Wis.) for a baseline period of 5 minutes prior to exercise. Subjects underwent a 16-minute submaximal exercise protocol on a stationary bicycle with an initial work load of 50 Watts followed by increases to 75 Watts at 4 minutes and 100 Watts at 8 minutes, as tolerated by the patient. Continuous ECG was recorded for up to 45 minutes of recovery. Blood samples for determination of plasma epinephrine and norepinephrine samples were taken during the rest period, at minutes 8 and 15 of exercise, and during the recovery period at 5, 10, 20, 30, and 45 minutes after cessation of exercise. […]

[3] = Atropine test
[4] = atropine test versus baseline test
[5] = peak exercise, iv atropine 0.04 mg/kg from minute 12 of exercise
[6] = recovery 5 min, iv atropine 0.04 mg/kg during exercise
[7] = recovery 10 min, iv atropine 0.04 mg/kg during exercise
[8] = recovery 20 min, iv atropine 0.04 mg/kg during exercise
[9] = recovery 30 min, iv atropine 0.04 mg/kg during exercise

With CCCCc1oc2ccccc2c1C(=O)c1cc(I)c(OCCN(CC)CC)c(I)c1 [Amiodarone] as the compound, how does the “effect on total mortality” value [1] read?
Its value is “has not been shown to have a beneficial effect”.

Which results are given for CN1[C@@H]2CC[C@H]1C[C@@H](OC(=O)C(CO)c1ccccc1)C2 (some centres unmarked) [Atropine, atropine]?
change in diastolic blood pressure [2, 4]: no detectable changes; change in heart rate [2, 4]: large changes in heart rate; change in systolic blood pressure [2, 4]: no detectable changes; Diastolic BP [2, 5]: 83 ± 14 mmHg; Systolic BP [2, 5]: 162 ± 25 mmHg; Diastolic BP [2, 6]: 78 ± 9 mmHg; HEART RATE [2, 6]: 110 ± 16 bpm; Systolic BP [2, 6]: 122 ± 15 mmHg; Diastolic BP [2, 7]: 78 ± 9 mmHg; HEART RATE [2, 7]: 106 ± 16 bpm; Systolic BP [2, 7]: 120 ± 16 mmHg; Diastolic BP [2, 8]: 78 ± 11 mmHg; HEART RATE [2, 8]: 102 ± 15 bpm; Systolic BP [2, 8]: 118 ± 14 mmHg; Diastolic BP [2, 9]: 79 ± 9 mmHg; HEART RATE [2, 9]: 99 ± 14 bpm; Systolic BP [2, 9]: 117 ± 14 mmHg; ln(NE) mean ([3]; 30th min recovery, N=81): 6.31; ln(NE) mean ([3]; rest (before exercise and before atropine), N=90): 6.38
